What was measured:
[1] = Solubility data in organic common solvents; format: physicochemical; settings: comparison in words
From the text: Solubility data were obtained for compounds of the present teachings in various organic common solvents (Table 3). N,N′-bis(4-n-octyl)-1,7-dicyanoperylene-3,4:9,10-bis(dicarboxiamide) (PDI8-CN2) was included as a comparative compound.

[2] = Solubility of isolated product in common organic solvents (noted at work-up); format: physicochemical; settings: product after cyanation
Protocol: A mixture of N,N′-bis[4-(2′,3′,4′,5′,6′-pentafluorobiphenyl)]-1,7-dibromoperylene-3,4:9,10-bis(dicarboxiamide) (0.21 g, 0.203 mmol) and CuCN (0.33 g, 3.69 mmol) in DMF (10 mL) was deaerated and placed under nitrogen. The reaction mixture was heated at 150° C. for 9 hours. After cooling to room temperature, the precipitate was collected by filtration, washed several times with MeOH, and dried overnight. The product (0.11 g, 0.12 mmol, 59.1% yield) was insoluble in common organic solvents and it was gradient-sublimed.
A mixture of N,N′-bis(4-benzoylphenyl)-1,7-dibromoperylene-3,4:9,10-bis(dicarboxiamide) (0.60 g, 0.66 mmol) and CuCN (1.07 g, 12.0 mmol) in DMF (27 mL) was deaerated and placed under nitrogen. The reaction mixture was heated at 150° C. for 6 hours. After cooling to room temperature, the precipitate was collected by filtration, washed several times with MeOH, and dried overnight. The crude solid (0.42 g) was insoluble in common organic solvents.

Row | solubility compared to PDI8-CN2 and the other compounds of Table 3 [1] | solubility in common organic solvents [2] | Compound
1 | unexpected increase in solubility |  | CC(C)=CCC[C@H](C)CCN1C(=O)c2ccc3c4c(C#N)cc5c6c(ccc(c7c(C#N)cc(c2c37)C1=O)c64)C(=O)N(CC[C@@H](C)CCC=C(C)C)C5=O [PDICitr-CN2, N,N′-bis[(3S)-3,7-dimethyl-6-octenyl]-1,7-dicyanoperylene-3,4:9,10-bis(dicarboxiamide)]
2 |  | insoluble | N#Cc1cc2c3c(ccc4c5c(C#N)cc6c7c(ccc(c1c34)c75)C(=O)N(c1ccc(C(=O)c3ccccc3)cc1)C6=O)C(=O)N(c1ccc(C(=O)c3ccccc3)cc1)C2=O [PDIPhCOPh-CN2, N,N′-bis(4-n-benzoylphenyl)-1,7-dicyanoperylene-3,4:9,10-bis(dicarboxiamide)]
3 |  | insoluble | N,N′-bis[4-(2′,3′,4′,5′,6′-pentafluorobiphenyl)]-1,7-dibromoperylene-3,4:9,10-bis(dicarboxiamide) [PDIPhPh^F-CN2]
